Series [1] can be described thus: Hydroxyapatite challenge of Ba-L complexes (GFAAS). The series is classed as physicochemical. Particulars: HAP suspension, pH 7.6, after 20 h. Here is the method: HAP was suspended in solutions containing the complexes formed in situ (1.1 equiv L, 1.0 equiv Ba^2+) in pH 7.6 buffer, and the amount of Ba^2+ remaining in the liquid phase, reflecting intact Ba-L complex, was determined by graphite furnace atomic absorption spectroscopy (GFAAS). Whereas free Ba^2+ is adsorbed by HAP in less than 10 min, Ba-macropa and Ba-macropaquin respectively retained 82% and 68% of this ion after 20 h. […] This feature may be important for Ba^2+ chelation in industrial applications, such as scale dissolution, because numerous other metal ions are present during these processes. […]
More specifically, hydroxyapatite (HAP, Ca5(PO4)3(OH)) challenges were carried out in 500 mM Tris buffer. […] The concentrations of these stocks were verified by quantitative NMR (n=2 for each ligand) using two independently prepared standards of potassium hydrogen phthalate in D2O. […] The concentration of macroquin-SO3 was determined by UV-vis spectrophotometry from the average of two titrations with Ba^2+. […] The absorbance at 320 nm was monitored until spectral changes ceased, at which point [Ba^2+]=[L]. From the volume of titrant added, the concentration of the stock solution of macroquin-SO3 was calculated to be 8.17 mM, which was within 9% of the theoretical value of 8.96 mM based on mass. […]

The conditions of series [2]: CRC Handbook; cited from earlier work.

`O=C([O-])c1cccc(CN2CCOCCOCCN(Cc3cccc(C(=O)[O-])n3)CCOCCOCC2)n1.[Ba+2]` [Ba-macropa]: in series [1], the “Ba^2+ remaining in the liquid phase (intact Ba-L complex)” value is listed as 82%.

Consider `O=S(=O)([O-])[O-].[Ba+2]` [BaSO4], for which the Ksp in series [2] is 1.08×10^−10.

(Values after patent US11708283B2, “Metal-chelating compositions and their use in methods of removing or inhibiting barium scale” (CORNELL UNIVERSITY, priority 2018, dated 2023).)
